Where two headings read alike, the source gives them in different places.
Columns and labels:
U937 leukemia cell line = experiment: U937 monocytic differentiation assay (CD11b surface marker, flow cytometry); type: cell-based; conditions: for activity to induce differentiation of U937 cells (in words): 4 days
Experimental: CDDO-Im 1 is a potent inducer of differentiation in U937 cells (Place, et al. (2003) Clin. Cancer Res. 9:2798-2806). Therefore, the activity of the CDDO-Im analogs was evaluated using the U937 leukemia cell line. CD11b (also known as Mac-1α or CR3 complement receptor) was used as a surface marker of monocytic differentiation, and its expression was measured by flow cytometry after 4 days of treatment with CDDO-Phenyl-Im 2, CDDO-3P-Im 3, CDDO-2P-Im 4, CDDO-4P-Im 5, CDDO-Im 1 (as positive control) or vehicle (DMSO). […] Indeed, the highest level of differentiation was obtained using 100 nM of CDDO-2P-Im (approximately a 4-fold induction of CD11b).

[1] = tested on: RA W264.7 macrophage-like cells; experiment: Inhibition of IFNγ-stimulated nitric oxide release (Griess reaction); type: cell-based; conditions: 10 ng/ml IFNγ, 24 hour exposure, read-out: IC50 (nM) Mean ± SE, NO production
Experimental: Because oxidative and inflammatory stress contribute to carcinogenesis (Albini & Sporn (2007) Nature Rev. Cancer 7:139-147), it was determined whether the pyridine analogues could block de novo synthesis of inducible nitric oxide synthase (iNOS), a critical enzyme involved in the inflammatory response (Kroncke, et al. (1998) Clin. Exp. Immunol. 113:147-156; Zamora, et al. (2000) Mol. Med. 6:347-373). Nitric oxide release was determined in RA W264.7 macrophage-like cells, after stimulation with 10 ng/ml interferon-γ (IFNγ) and a 24 hour-exposure to each compound at 0.625, 1.3, 2.5, 5, 10 and 20 nM. NO release was measured by Griess reaction and compared to CDDO-Im, which is a potent suppressor of iNOS (Place, et al. (2003) Clin. Cancer Res. […]:2798-2806).

[2] = Stability in human plasma at 37° C. (LC-MS); type: in vitro ADME; conditions: for percent of starting material remaining in plasma: after a 1-hour incubation; for stability in human plasma (in words): up to 6 hours
Experimental: Since CDDO-Im is not stable in human plasma, the stability of the CDDO-Im analogs was determined. Compounds were incubated in human plasma at 37° C. for up to 6 hours. The compounds were extracted with acetonitrile at six different time points (0, 0.5, 1, 2, 4 and 6 hours), centrifuged, and the percent of starting material remaining in the supernatant was measured by liquid chromatography-mass spectrometry (LC-MS). […] The concentrations then decreased gradually over 6 hours. […] Unexpectedly, the CDDO-Im analogs are metabolized differently from CCDO-Im, as no traces of CDDO were detected with any of the other compounds at any time point. Instead, an oxidized derivative was detected on the chromatogram, in the form of an adduct on the molecule of +16 in MW (N-oxide).

[3] = Tissue distribution after single gavage in C57BL/6 mice (LC-MS); type: in vivo; conditions: for bioavailability / drug levels in organs (in words): compared with CDDO-Im 1; for Compound Concentration Mean ± SE, Kidney / Compound Concentration Mean ± SE, Liver / Compound Concentration Mean ± SE, Lungs / Compound Concentration Mean ± SE, Pancreas / Compound Concentration Mean ± SE, Plasma / Compound Concentration Mean ± SE, Whole Blood: six hours after single gavage with 1 μmole
Experimental: To determine concentrations of the CDDO-Im analogs in various organs, an in vivo evaluation was conducted in C57BL/6 mice. Six hours after a single gavage with 1 μmole of compound, the mice were sacrificed and the tissues were collected.

HO-1 = experiment: Induction of HO-1 mRNA in mouse liver, kidney and lung (real-time PCR); type: in vivo, mice; conditions: for HO-1 level relative to CDDO-Im / HO-1 mRNA fold induction compared to the vehicle control: liver; for HO-1 mRNA fold induction compared to the vehicle control: six hours after gavage with 1 μmole; for HO-1 induction (in words): kidney
Description: (§1) FIG. 2A and FIG. 2B show the induction of cytoprotective enzyme expression in mouse liver, kidney and lung. CB57BL/6 mice were gavaged with 1 μmole of each triterpenoid. Six hours later, organs were harvested, RNA was extracted, and mRNA levels for HO-1 (FIG. 2A) and NQO1 (FIG. 2B) were quantified by real-time PCR analysis. Results are presented as the fold induction for each compound compared to the vehicle (DMSO) control. Data are presented as mean±SE of six mice per group.
Synthetic triterpenoids such as CDDO-Im strongly activate the Nrf2/ARE pathway; Nrf2 is a transcription factor that regulates numerous cytoprotective and anti-inflammatory genes (Liby, et al. (2005) Cancer Res. 65:4789-98; Yates, et al. (2007) Mol. Cancer Therapeut. 6:154-62). Therefore, the ability of the new pyridine compounds to induce transcription of the Nrf2 target genes HO-1 and NQ01 in vivo was assessed. […] In the liver, CDDO-3P-Im and CDDO-2P-Im induced high levels of HO-1, which were about 3 times more elevated than with CDDO-Im (13.4- and 15.2-fold, respectively vs. 4.9-fold for CDDO-Im). […] The results obtained in lungs were, on the other hand, unexpected.

U937 cells = experiment: Apoptosis in U937 cells (annexin V staining); type: cell-based; conditions: U937 cells treated for 48 hours
NQO1 = experiment: Induction of NQO1 mRNA in mouse liver, kidney and lung (real-time PCR); type: in vivo, mice
Description: as §1
Because HO-1 is regulated by transcription factors in addition to Nrf2 (Alam, et al. (1999) J. Biol. Chem. 274:26071-8; Kensler, et al. (2007) Ann. Rev. Pharmacol. Toxicol. 47:89-116), induction of the prototypical Nrf2 target gene NQO1 was also examined.

[4] = 30 nM, compared with CDDO-Im and CDDO-3P-Im
[5] = six hours after gavage with 1 μmole
[6] = six hours after gavage with 1 μmole, read-out: concentration in the pancreas
[7] = 30 nM, 4 days of treatment, U937 cells

IC50 [1] | percent of starting material remaining in plasma ([2]; 37° C.) | stability in human plasma (in words) ([2]; 37° C.) | bioavailability / drug levels in organs (in words) [3] | concentration in the liver [3, 5] | concentration at 6 h [3, 6] | Compound Concentration Mean ± SE, Kidney [3] | Compound Concentration Mean ± SE, Liver [3] | Compound Concentration Mean ± SE, Lungs [3] | Compound Concentration Mean ± SE, Pancreas [3] | Compound Concentration Mean ± SE, Plasma [3] | Compound Concentration Mean ± SE, Whole Blood [3] | SMILES | activity to induce differentiation of U937 cells (in words) (U937 leukemia cell line; [4]) | activity to induce differentiation of U937 cells (in words) (U937 leukemia cell line; 100 nM) | drug levels in the lungs [3, 5] | HO-1 level relative to CDDO-Im (HO-1; six hours after gavage) | HO-1 mRNA fold induction compared to the vehicle control (HO-1) | induction of CD11b expression compared to the DMSO-treated cells (U937 leukemia cell line; [7]) | cell death in the differentiation assay (U937 leukemia cell line; 100 nM) | annexin V staining, a marker of early apoptosis (U937 cells) | other results
5.8 ± 1.1 nM | more than 85% | the most stable analog | better than for CDDO-Im 1 | 12000 to 15000 nM | 3500 nM | 3.70 ± 0.55 µmol/kg | 14.9 ± 2.58 µmol/kg | 2.63 ± 0.41 µmol/kg | 3.55 ± 0.39 µmol/kg | 0.52 ± 0.02 µmol/kg | 0.53 ± 0.02 µmol/kg | CC1(C)CCC2(C(=O)n3cnc(-c4ccccn4)c3)CCC3(C)C(C(=O)C=C4C5(C)C=C(C#N)C(=O)C(C)(C)C5CCC43C)C2C1 (stereo not drawn) [CDDO-2P-Im 4] | less active | enhanced the activity | greater than 2.5 μM | about 3 times | 15.2 fold | – | – | – | induction of CD11b (U937 leukemia cell line; 100 nM, 4 days of treatment, U937 cells): ~4 fold; percent left in plasma ([2]; after 4 hours, 37° C.): more than 50%
9 ± 0.6 nM | 42% | more stable than CDDO-Im | – | – | – | 0.35 ± 0.06 µmol/kg | 2.8 ± 0.47 µmol/kg | 0.17 ± 0.05 µmol/kg | 0.30 ± 0.04 µmol/kg | 0.03 ± 0.01 µmol/kg | 0.04 ± 0.1 µmol/kg | CC1(C)CCC2(C(=O)n3cnc(-c4ccncc4)c3)CCC3(C)C(C(=O)C=C4C5(C)C=C(C#N)C(=O)C(C)(C)C5CCC43C)C2C1 (stereo not drawn) [CDDO-4P-Im 5] | less active | enhanced the activity | – | – | – | – | – | – | HO-1 induction (in words) (HO-1): less potent than CDDO-Im; HO-1 transcript level relative to CDDO-Im or any of the other compounds (HO-1; lungs, six hours after gavage): about 3 times
– | – | rapidly metabolized | – | – | – | 0.24 ± 0.08 µmol/kg | 1.7 ± 0.32 µmol/kg | 0.19 ± 0.05 µmol/kg | 0.31 ± 0.09 µmol/kg | 0.06 ± 0.02 µmol/kg | 0.03 ± 0.01 µmol/kg | CC1(C)CCC2(C(=O)n3ccnc3)CCC3(C)C(C(=O)C=C4C5(C)C=C(C#N)C(=O)C(C)(C)C5CCC43C)C2C1 (stereo not drawn) [CDDO-Im 1, 1-(2-cyano-3,12-dioxooleana-1,9(11)-dien-28-oyl) imidazole, reference compound] | – | – | – | – | – | ~3 fold | induced cell death | increased annexin V staining | IC50 ([1]; Mus musculus, RAW264.7): 2 nM; transformation product in human plasma (in words) ([2]; LC-MS, all time points): essentially converted to its parent molecule; percent of compound lost in human plasma ([2]; within 30 minutes, 37° C.): more than 88%; percent of compound lost in human plasma ([2]; within the next 5 hours (6 hour incubation), 37° C.): 98%; concentration at 6 h ([3]; C57BL/6, mouse, liver, oral, six hours after gavage with 1 μmole, read-out: concentration in the liver): 1700 nM; concentration at 6 h ([3]; C57BL/6, mouse, lung, oral, six hours after gavage with 1 μmole, read-out: drug levels in the lungs): 200 nM; concentration at 6 h ([3]; C57BL/6, mouse, pancreas, oral, six hours after gavage with 1 μmole, read-out: concentration in the pancreas): ~300 nM; rank of NQO1 mRNA induction (in words) (NQO1; liver and kidney): the most potent compound
14.7 nM | – | more stable than CDDO-Im | better than for CDDO-Im 1 | 12000 to 15000 nM | 2000 nM | 5.79 ± 0.25 µmol/kg | 12.2 ± 1.27 µmol/kg | 1.28 ± 0.17 µmol/kg | 1.97 ± 0.19 µmol/kg | 0.12 ± 0.01 µmol/kg | 0.35 ± 0.03 µmol/kg | CC1(C)CCC2(C(=O)n3cnc(-c4ccccc4)c3)CCC3(C)C(C(=O)C=C4C5(C)C=C(C#N)C(=O)C(C)(C)C5CCC43C)C2C1 (stereo not drawn) [CDDO-Phenyl-Im 2] | less active | – | – | – | – | – | – | – | concentration in kidneys [3, 5]: 5800 nM; HO-1 induction (in words) (HO-1): markedly less potent; NQO1 mRNA induction (in words) (NQO1; liver, compared with CDDO-Im): markedly less potent than CDDO-Im

SMILES | IC50 [1] | percent of starting material remaining in plasma ([2]; 37° C.) | stability in human plasma (in words) ([2]; 37° C.) | bioavailability / drug levels in organs (in words) [3] | concentration in the liver [3, 5] | concentration at 6 h [3, 6] | Compound Concentration Mean ± SE, Kidney [3] | Compound Concentration Mean ± SE, Liver [3] | Compound Concentration Mean ± SE, Lungs [3] | Compound Concentration Mean ± SE, Pancreas [3] | Compound Concentration Mean ± SE, Plasma [3] | Compound Concentration Mean ± SE, Whole Blood [3] | activity to induce differentiation of U937 cells (in words) (U937 leukemia cell line; [4]) | activity to induce differentiation of U937 cells (in words) (U937 leukemia cell line; 100 nM) | drug levels in the lungs [3, 5] | HO-1 level relative to CDDO-Im (HO-1; six hours after gavage) | HO-1 mRNA fold induction compared to the vehicle control (HO-1) | induction of CD11b expression compared to the DMSO-treated cells (U937 leukemia cell line; [7]) | cell death in the differentiation assay (U937 leukemia cell line; 100 nM) | annexin V staining, a marker of early apoptosis (U937 cells) | other results
CC1(C)CCC2(C(=O)n3cnc(-c4cccnc4)c3)CCC3(C)C(C(=O)C=C4C5(C)C=C(C#N)C(=O)C(C)(C)C5CCC43C)C2C1 (stereo not drawn) [CDDO-3P-Im 3] | 4.3 nM | – | more stable than CDDO-Im | better than for CDDO-Im 1 | – | 2500 nM | 1.47 ± 0.24 µmol/kg | 5.9 ± 0.57 µmol/kg | 2.49 ± 0.44 µmol/kg | 2.52 ± 0.24 µmol/kg | 0.15 ± 0.04 µmol/kg | 0.16 ± 0.02 µmol/kg | – | – | greater than 2.5 μM | about 3 times | 13.4 fold | ~3 fold | induced cell death | increased annexin V staining | –

From patent US10189791B2, “Pyridyl analogs of 1-(2-cyano-3,12-dioxooleana-1,9(11)dien-28-oyl) imidazole” (Trustees of Dartmouth College, priority 2014, dated 2019)
